Data as given in patent US20060134022A1, “Salivary stimulatory compositions and method of use thereof” (priority 2004, published 2006).

Assay: Self warming mouthwash temperature increase vs. sulfite concentration on mixing sulfite phase with peroxide phase
Type: physicochemical
Conditions: approximate (plus/minus 2 degrees)
Description: The saliva stimulation effectiveness of the solution depends on raising its temperature before use. This may be done by conventional external heating means. Alternatively the sulfate, bisulfate or pyrosulfate may be produced in situ by utilizing a solution of the corresponding sulfite, bisulfite or metabisulfite and adding a solution of an orally acceptable peroxide thereto. The resulting reaction produces excess heat, thus raising the solution temperature. While the amount of peroxide added is not critical, it is desirable to use at least an amount substantially equivalent to the stoichiometric amount need to oxidize the salts in their reduced forms to the higher oxidation state.
Note: Temperatures are in Fahrenheit Degrees and are approximate (plus/minus 2 degrees).
Sulfite Concentrations listed below are final concentration in the mouthwash. Since the final mouthwash is formed from equal amounts of 2 separate phases, the sulfite concentration in the sulfite containing phase is double that in the final mouthwash.
Combine equal amounts of Phase A and Phase B, Just prior to use, to form the final mouth rinse

[1] = 1% final concentration in the mouthwash
[2] = 2% final concentration in the mouthwash
[3] = 4% final concentration in the mouthwash

Row | Structure (SMILES) | Final Temp. [1] [Fahrenheit Degrees] | Temp. Increase [1] [Fahrenheit Degrees] | Final Temp. [2] [Fahrenheit Degrees] | Temp. Increase [2] [Fahrenheit Degrees] | Final Temp. [3] [Fahrenheit Degrees] | Temp. Increase [3] [Fahrenheit Degrees]
1 | O=S([O-])S(=O)(=O)[O-].[Na+].[Na+] [Sodium Metabisulfite] | 97.3 | 12.1 | 113.2 | 27.2 | 142.0 | 55.9
2 | O=S([O-])[O-].[Na+].[Na+] [Sodium Sulfite] | 98.1 | 10.2 | 110.7 | 21.4 | 133.5 | 43.0
